Patent publication US20250354998A1, “METHODS OF DIAGNOSING AND TREATING MULTIPLE SCLEROSIS BY DETECTING A BIOMARKER IN THE CEREBROSPINAL FLUID” (Principia Biopharma Inc., priority 2023, published 2025)

How the values were obtained:
[1] = test system: CSF proteome (Olink Explore 384 panels, 1463 analytes); assay: Olink proteomics of cerebrospinal fluid of MS patients under therapy; assay type: in vivo, human
Description: In the present study, a platform technology (Olink® Proteomics) was used. This test utilizes a high throughput, multiplex immunoassay technology that enables the measurement of over 1000 proteins from small sample volumes. See e.g., Assarsson E, et al. PLoS One 2014; 9(4): e95192; and Cui M, et al. Lab Invest 2022, each of which is incorporated by reference in its entirety. Two sets of subjects were analyzed. First, Olink proteomics technology was used to profile the baseline CSF proteome of untreated MS patients. Second, alterations to the MS CSF proteome upon therapeutic intervention with either a B cell depleting agent alone or after transitioning to tolebrutinib, a brain penetrant Bruton's tyrosine kinase (BTK) inhibitor, was evaluated.
To establish a baseline of proteomic expression, an Olink proteomics assay was performed on the CSF of multiple groups of subjects, including healthy volunteers (HV), HTLV 1 associated myelopathy/tropical spastic paraparesis (HAM/TSP) patients, radiologically isolated syndrome (RIS) patients, clinically isolated syndrome (CIS) patients, and multiple sclerosis (MS) patients, including patients with relapsing remitting MS (RRMS), secondary progressive MS (SPMS), and primary progressive MS (PPMS). CSF samples were collected from 31 healthy volunteers and 71 treatment-naïve subjects with MS. The CSF proteome was examined using the Cardiometabolic, Inflammation, Neurology, and Oncology Olink Explore 384 panels (1463 analytes total).
Next, it was examined whether treatment with different therapies for patients having MS would result in differential proteome expression. A group of subjects with MS were treated either with an anti-CD20 antibody alone or with an anti-CD20 antibody and then transitioning to tolebrutinib, and their proteome was examined using similar techniques described in Example 1B. More specifically, the cohort of MS patients in this example included untreated patients, patients treated with a B cell depleting agent for at least six months, and patients 12 weeks and 48 weeks after transitioning from a B cell depletion therapy to tolebrutinib in a clinical trial (NCT04742400).
Several participants (age [mean±standard deviation]: 48.2±7.9 years; sex: 2 female) who had been treated with ocrelizumab for >6 months (median: 3.2 years; range: 1.8-4.0 years) were included. Participants had no signs of acute focal inflammation based on magnetic resonance imaging. CSF was collected before baseline (within 6 months since last ocrelizumab infusion), and at 12 and 48 weeks after transitioning to tolebrutinib 60 mg.
The data were sorted into two sets of comparisons. The comparisons include (1) subjects treated with an anti-CD20 antibody compared to untreated MS subjects (FIG. 3) and (2) subjects treated with tolebrutinib after transitioning from an anti-CD20 antibody compared to subjects treated with an anti-CD20 antibody (FIG. 4A).

CXCL13 = CXCL13 protein level in CSF by MSD (meso scale discovery); assay type: in vivo, human; conditions: MSD (FIG. 6); twelve week and forty-eight week course of tolebrutinib vs untreated, HAM/TSP or continued ocrelizumab
Source text: HV: health volunteer; HAM/TSP: HTLV-1 associated myelopathy/tropical spastic paraparesis without treatment; MS_untreated: subjects with MS but have not been treated; MS_ocrelizumab: subjects treated only with an anti-CD20 antibody; MS_tolebrutinib: subjects treated with daily doses of tolebrutinib.
Similarly, this decrease was seen when comparing subjects who continued treatment with the anti-CD20 antibody (ocrelizumab) with subjects treated with a twelve week and forty-eight week course of tolebrutinib. FIGS. 4D, 5, and 6.

[2] = CSF, 48 weeks after transitioning from anti-CD20 antibody to tolebrutinib 60 mg vs anti-CD20 antibody
[3] = CSF, 48 weeks post-transition to tolebrutinib vs anti-CD20
[4] = CSF, subjects treated with anti-CD20 antibody for at least six months vs untreated MS subjects

## C=CC(=O)N1CCC[C@@H](n2c(=O)n(-c3ccc(Oc4ccccc4)cc3)c3c(N)nccc32)C1 [tolebrutinib, (R)-1-(1-acryloylpiperidin-3-yl)-4-amino-3-(4-phenoxyphenyl)-1H-imidazo[4,5-c]pyridin-2(3H)-one]
[1]; 48 weeks after transitioning from anti-CD20 therapy to tolebrutinib
  example biomarkers NEFL, CXCL13, CXCL10, CD27, CCL4 and CCL3 in CSF: disease-reversed proteins
[1]; [2]
  ANGPT1 Fold-Change (48wkBTKi. vs. antiCD20): −1.658
  ANGPTL2 Fold-Change (48wkBTKi. vs. antiCD20): −3.266
  ATXN10 Fold-Change (48wkBTKi. vs. antiCD20): −6.437
  CCL3 Fold-Change (48wkBTKi. vs. antiCD20): −2.142
  CCL4 Fold-Change (48wkBTKi. vs. antiCD20): −2.092
  CCL8 Fold-Change (48wkBTKi. vs. antiCD20): −2.68
  CCL11 Fold-Change (48wkBTKi. vs. antiCD20): −1.9597
  CCN4 Fold-Change (48wkBTKi. vs. antiCD20): −1.611
  CD4 Fold-Change (48wkBTKi. vs. antiCD20): −1.706
  CD8A Fold-Change (48wkBTKi. vs. antiCD20): −1.75
  CD38 Fold-Change (48wkBTKi. vs. antiCD20): −2.035
  CD276 Fold-Change (48wkBTKi. vs. antiCD20): −2.173
  CD302 Fold-Change (48wkBTKi. vs. antiCD20): −1.5791
  CDH3 Fold-Change (48wkBTKi. vs. antiCD20): −2.293
  CDNF Fold-Change (48wkBTKi. vs. antiCD20): −2.1
  CGREF1 Fold-Change (48wkBTKi. vs. antiCD20): −1.535
  CHRDL1 Fold-Change (48wkBTKi. vs. antiCD20): −2.236
  CLEC4C Fold-Change (48wkBTKi. vs. antiCD20): −1.714
  CLUL1 Fold-Change (48wkBTKi. vs. antiCD20): −2.021
  CTRC Fold-Change (48wkBTKi. vs. antiCD20): −2.869
  CXCL1 Fold-Change (48wkBTKi. vs. antiCD20): −3.054
  CXCL8 Fold-Change (48wkBTKi. vs. antiCD20): −1.605
  CXCL10 Fold-Change (48wkBTKi. vs. antiCD20): −3.598
  DRAXIN Fold-Change (48wkBTKi. vs. antiCD20): −2.047
  HS3ST3B1 Fold-Change (48wkBTKi. vs. antiCD20): −1.708
  HYOU1 Fold-Change (48wkBTKi. vs. antiCD20): −1.676
  IL5RA Fold-Change (48wkBTKi. vs. antiCD20): −1.716
  IL11 Fold-Change (48wkBTKi. vs. antiCD20): −6.841
  KAZALD1 Fold-Change (48wkBTKi. vs. antiCD20): −1.548
  KRT18 Fold-Change (48wkBTKi. vs. antiCD20): −1.6528
  LPL Fold-Change (48wkBTKi. vs. antiCD20): −1.744
  LTA Fold-Change (48wkBTKi. vs. antiCD20): −1.552
  MATN3 Fold-Change (48wkBTKi. vs. antiCD20): −1.889
  MFAP5 Fold-Change (48wkBTKi. vs. antiCD20): −2.536
  MSLN Fold-Change (48wkBTKi. vs. antiCD20): −2.068
  MZB1 Fold-Change (48wkBTKi. vs. antiCD20): −1.968
  NEFL Fold-Change (48wkBTKi. vs. antiCD20): −3.42
  NPDC1 Fold-Change (48wkBTKi. vs. antiCD20): −2.471
  NPTX1 Fold-Change (48wkBTKi. vs. antiCD20): −2.103
  NPY Fold-Change (48wkBTKi. vs. antiCD20): −1.797
  NTproBNP Fold-Change (48wkBTKi. vs. antiCD20): −2.314
  NUB1 Fold-Change (48wkBTKi. vs. antiCD20): −1.624
  NUCB2 Fold-Change (48wkBTKi. vs. antiCD20): −2.551
  PDCD5 Fold-Change (48wkBTKi. vs. antiCD20): −2.511
  PRL Fold-Change (48wkBTKi. vs. antiCD20): −3.416
  ROBO1 Fold-Change (48wkBTKi. vs. antiCD20): −1.511
  RTBDN Fold-Change (48wkBTKi. vs. antiCD20): −2.625
  SCG2 Fold-Change (48wkBTKi. vs. antiCD20): −2.959
  SCG3 Fold-Change (48wkBTKi. vs. antiCD20): −2.2848
  SPRY2 Fold-Change (48wkBTKi. vs. antiCD20): −1.907
  STC1 Fold-Change (48wkBTKi. vs. antiCD20): −1.863
  TDGF1 Fold-Change (48wkBTKi. vs. antiCD20): −4.457
  TIMP4 Fold-Change (48wkBTKi. vs. antiCD20): −1.776
  TNFRSF6B Fold-Change (48wkBTKi. vs. antiCD20): −2.999
  TNFRSF13B Fold-Change (48wkBTKi. vs. antiCD20): −2.063
  WFIKKN2 Fold-Change (48wkBTKi. vs. antiCD20): −2.432
  WIF1 Fold-Change (48wkBTKi. vs. antiCD20): −1.994
[1]; CSF, 48 weeks after transitioning to tolebrutinib from a B-cell depleting therapy
  share of disease-associated proteins reverting towards levels observed in healthy volunteers: 47%
[1]; [3]
  number of proteins with decreased abundance: 60 proteins
  number of proteins with increased abundance: 0 proteins
[1]; CSF, 48 weeks post-transitioning to tolebrutinib relative to anti-CD20 baseline levels
  proteins with increased abundance in subjects with MS (relative to HV) that were reversed: 30 proteins
[1]; Olink, subjects who switched from ocrelizumab to tolebrutinib (12 and 48 weeks)
  CXCL10 in CSF: downregulated
[1]; Olink, subjects who switched from ocrelizumab to tolebrutinib, twelve week and forty-eight week course
  CXCL13 in CSF: downregulated
CXCL13
  CXCL13 in CSF: decrease

## anti-CD20 antibody: B cell depleting agent; participants had been treated with ocrelizumab, humanized monoclonal antibody directed against the CD20 antigen
[1]; [4]
  CD6 Fold-change (antiCD20. vs. Untreated): −1.8
  CD22 Fold-change (antiCD20. vs. Untreated): −2.442
  FCRL1 Fold-change (antiCD20. vs. Untreated): −2.744
  SORD Fold-change (antiCD20. vs. Untreated): 2.045
